# Measured values from PubChem BioAssay (NCI).
#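 Cultured in 96-well plates, cells were exposed to test compound for 48 hours across five concentrations. GI50 marks 50% less growth. TGI is the concentration that stops growth completely.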
# How the values were obtained:
# Test in all cases: DTP human tumour cell line panel, 48 h
# DU-145 prostate = test system: DU-145 prostate
# HT29 colon = test system: HT29 colon
# K-562 leukemia = test system: K-562 leukemia
# MCF7 breast = test system: MCF7 breast
# MOLT-4 leukemia = test system: MOLT-4 leukemia
# OVCAR-8 ovarian = test system: OVCAR-8 ovarian
# SR leukemia = test system: SR leukemia
# 786-0 renal = test system: 786-0 renal
# A498 renal = test system: A498 renal
# A549 NSCLC = test system: A549 NSCLC
# ACHN renal = test system: ACHN renal
# CAKI-1 renal = test system: CAKI-1 renal
# COLO 205 colon = test system: COLO 205 colon
# EKVX NSCLC = test system: EKVX NSCLC
# HCC-2998 colon = test system: HCC-2998 colon
# HCT-116 colon = test system: HCT-116 colon
# HCT-15 colon = test system: HCT-15 colon
# HOP-62 NSCLC = test system: HOP-62 NSCLC
# HOP-92 NSCLC = test system: HOP-92 NSCLC
# HS 578T breast = test system: HS 578T breast
# IGROV1 ovarian = test system: IGROV1 ovarian
# KM12 colon = test system: KM12 colon
# LOX IMVI melanoma = test system: LOX IMVI melanoma
# M14 melanoma = test system: M14 melanoma
# MDA-MB-231 breast = test system: MDA-MB-231 breast
# MDA-MB-435 = test system: MDA-MB-435
# NCI-H226 lung = test system: NCI-H226 lung
# NCI-H23 lung = test system: NCI-H23 lung
# NCI-H460 lung = test system: NCI-H460 lung
# NCI-H522 lung = test system: NCI-H522 lung
# NCI/ADR-RES ovarian = test system: NCI/ADR-RES ovarian
# OVCAR-3 ovarian = test system: OVCAR-3 ovarian
# OVCAR-4 ovarian = test system: OVCAR-4 ovarian
# OVCAR-5 ovarian = test system: OVCAR-5 ovarian
# PC-3 prostate = test system: PC-3 prostate
# RPMI-8226 leukemia = test system: RPMI-8226 leukemia
# RXF 393 renal = test system: RXF 393 renal
# SF-268 CNS = test system: SF-268 CNS
# SF-295 CNS = test system: SF-295 CNS
# SF-539 CNS = test system: SF-539 CNS
# SK-MEL-2 melanoma = test system: SK-MEL-2 melanoma
# SK-MEL-5 melanoma = test system: SK-MEL-5 melanoma
# SK-OV-3 ovarian = test system: SK-OV-3 ovarian
# SN12C renal = test system: SN12C renal
# SNB-19 CNS = test system: SNB-19 CNS
# SNB-75 CNS = test system: SNB-75 CNS
# SW-620 colon = test system: SW-620 colon
# T-47D breast = test system: T-47D breast
# TK-10 renal = test system: TK-10 renal
# U251 CNS = test system: U251 CNS
# UACC-257 melanoma = test system: UACC-257 melanoma
# UACC-62 melanoma = test system: UACC-62 melanoma
# UO-31 renal = test system: UO-31 renal
smiles,measurement,setting,value
Cc1ccc(-c2cc3nc(C(Cl)Cl)nc(-c4cccnc4)n3n2)cc1,GI50,DU-145 prostate,548 nM
same,TGI,DU-145 prostate,3790 nM
same,GI50,HT29 colon,652 nM
same,TGI,HT29 colon,> 100000 nM
same,GI50,K-562 leukemia,2010 nM
same,TGI,K-562 leukemia,> 100000 nM
same,GI50,MCF7 breast,2010 nM
same,TGI,MCF7 breast,> 100000 nM
same,GI50,MOLT-4 leukemia,1830 nM
same,TGI,MOLT-4 leukemia,> 100000 nM
same,GI50,OVCAR-8 ovarian,1480 nM
same,TGI,OVCAR-8 ovarian,> 100000 nM
same,GI50,SR leukemia,495 nM
same,TGI,SR leukemia,> 100000 nM
O=C1c2cc3c(cc2[C@@H]2[C@H]1c1ccc([N+](=O)[O-])cc1C(=O)N2CCCCl)OCO3,GI50,786-0 renal,< 10 nM
same,TGI,786-0 renal,< 13.5 nM
same,GI50,A498 renal,< 10 nM
same,TGI,A498 renal,< 10 nM
same,GI50,A549 NSCLC,< 10 nM
same,TGI,A549 NSCLC,> 100000 nM
same,GI50,ACHN renal,< 10 nM
same,TGI,ACHN renal,< 10 nM
same,GI50,CAKI-1 renal,< 10 nM
same,TGI,CAKI-1 renal,< 10 nM
same,GI50,COLO 205 colon,< 13.1 nM
same,TGI,COLO 205 colon,> 100000 nM
same,GI50,DU-145 prostate,< 10 nM
same,GI50,EKVX NSCLC,< 10 nM
same,TGI,EKVX NSCLC,> 100000 nM
same,GI50,HCC-2998 colon,16.4 nM
same,TGI,HCC-2998 colon,568 nM
same,GI50,HCT-116 colon,< 10 nM
same,TGI,HCT-116 colon,15700 nM
same,GI50,HCT-15 colon,< 14.5 nM
same,TGI,HCT-15 colon,> 40600 nM
same,GI50,HOP-62 NSCLC,< 10 nM
same,GI50,HOP-92 NSCLC,< 30 nM
same,TGI,HOP-92 NSCLC,> 100000 nM
same,GI50,HS 578T breast,174 nM
same,TGI,HS 578T breast,61500 nM
same,GI50,HT29 colon,< 10 nM
same,TGI,HT29 colon,> 100000 nM
same,GI50,IGROV1 ovarian,< 10 nM
same,TGI,IGROV1 ovarian,> 100000 nM
same,GI50,K-562 leukemia,857 nM
same,TGI,K-562 leukemia,> 100000 nM
same,GI50,KM12 colon,< 11.3 nM
same,TGI,KM12 colon,2050 nM
same,GI50,LOX IMVI melanoma,< 10 nM
same,TGI,LOX IMVI melanoma,< 10 nM
same,GI50,M14 melanoma,< 10 nM
same,TGI,M14 melanoma,< 10 nM
same,GI50,MCF7 breast,< 10 nM
same,GI50,MDA-MB-231 breast,< 41.6 nM
same,TGI,MDA-MB-231 breast,2380 nM
same,GI50,MDA-MB-435,< 10 nM
same,TGI,MDA-MB-435,< 42.2 nM
same,GI50,MOLT-4 leukemia,> 100000 nM
same,TGI,MOLT-4 leukemia,> 100000 nM
same,GI50,NCI-H226 lung,< 10 nM
same,TGI,NCI-H226 lung,136 nM
same,GI50,NCI-H23 lung,< 10 nM
same,TGI,NCI-H23 lung,39.8 nM
same,GI50,NCI-H460 lung,< 10 nM
same,TGI,NCI-H460 lung,13600 nM
same,GI50,NCI-H522 lung,< 10 nM
same,TGI,NCI-H522 lung,9640 nM
same,GI50,NCI/ADR-RES ovarian,< 10 nM
same,TGI,NCI/ADR-RES ovarian,548 nM
same,GI50,OVCAR-3 ovarian,73 nM
same,TGI,OVCAR-3 ovarian,456 nM
same,GI50,OVCAR-4 ovarian,151 nM
same,TGI,OVCAR-4 ovarian,> 100000 nM
same,GI50,OVCAR-5 ovarian,< 14.4 nM
same,GI50,OVCAR-8 ovarian,< 10 nM
same,TGI,OVCAR-8 ovarian,> 100000 nM
same,GI50,PC-3 prostate,< 10 nM
same,TGI,PC-3 prostate,> 44500 nM
same,GI50,RPMI-8226 leukemia,< 17.1 nM
same,TGI,RPMI-8226 leukemia,> 100000 nM
same,GI50,RXF 393 renal,< 10 nM
same,TGI,RXF 393 renal,10100 nM
same,GI50,SF-268 CNS,< 10 nM
same,GI50,SF-295 CNS,< 10 nM
same,TGI,SF-295 CNS,11400 nM
same,GI50,SF-539 CNS,< 10 nM
same,GI50,SK-MEL-2 melanoma,82.7 nM
same,TGI,SK-MEL-2 melanoma,> 100000 nM
same,GI50,SK-MEL-5 melanoma,< 10 nM
same,TGI,SK-MEL-5 melanoma,< 10 nM
same,GI50,SK-OV-3 ovarian,< 27 nM
same,GI50,SN12C renal,< 10 nM
same,GI50,SNB-19 CNS,< 13.9 nM
same,TGI,SNB-19 CNS,> 100000 nM
same,GI50,SNB-75 CNS,< 25.3 nM
same,TGI,SNB-75 CNS,> 100000 nM
same,GI50,SW-620 colon,< 10 nM
same,TGI,SW-620 colon,> 100000 nM
same,GI50,T-47D breast,> 100000 nM
same,TGI,T-47D breast,> 100000 nM
same,GI50,TK-10 renal,86.8 nM
same,GI50,U251 CNS,< 10 nM
same,TGI,U251 CNS,< 12.8 nM
same,GI50,UACC-257 melanoma,< 10 nM
same,GI50,UACC-62 melanoma,< 10 nM
same,TGI,UACC-62 melanoma,< 17.1 nM
same,GI50,UO-31 renal,< 10 nM
O=C(O)c1cc(-c2ccc(-c3ccc(-c4cc(C(=O)O)c5cc(Cl)ccc5n4)cc3)cc2)nc2ccc(Cl)cc12,GI50,HCT-116 colon,52400 nM
same,GI50,HCT-15 colon,67200 nM
same,GI50,MDA-MB-231 breast,46500 nM
same,GI50,NCI-H522 lung,79800 nM
same,GI50,OVCAR-3 ovarian,48800 nM
same,GI50,RXF 393 renal,77900 nM
same,GI50,SF-268 CNS,94700 nM
same,GI50,SK-MEL-2 melanoma,56000 nM
same,GI50,T-47D breast,50900 nM
same,GI50,U251 CNS,40900 nM
same,GI50,UO-31 renal,32500 nM
